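How tested: cells in 96-well plates exposed to compound for 48 hours at five concentrations. GI50: concentration for 50% inhibition of growth. TGI is the concentration that stops growth completely.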
Experiments:
Assay in all cases: NCI-60 cell line screen, 48 h
[1] = test system: MDA-MB-435
[2] = test system: SNB-19 CNS
[3] = test system: RPMI-8226 leukemia
[4] = test system: U251 CNS
[5] = test system: COLO 205 colon
[6] = test system: MDA-MB-231 breast
[7] = test system: UACC-62 melanoma
[8] = test system: IGROV1 ovarian
[9] = test system: SNB-75 CNS
[10] = test system: OVCAR-4 ovarian
[11] = test system: NCI-H226 lung
[12] = test system: OVCAR-3 ovarian
[13] = test system: HL-60(TB) leukemia
[14] = test system: OVCAR-8 ovarian
[15] = test system: BT-549 breast
[16] = test system: SW-620 colon
[17] = test system: SF-268 CNS
[18] = test system: HCT-15 colon
[19] = test system: NCI-H23 lung
[20] = test system: HOP-62 NSCLC
[21] = test system: TK-10 renal
[22] = test system: ACHN renal
[23] = test system: MALME-3M melanoma
[24] = test system: SK-MEL-28 melanoma
[25] = test system: SK-MEL-2 melanoma
[26] = test system: RXF 393 renal
[27] = test system: MOLT-4 leukemia
[28] = test system: UO-31 renal
[29] = test system: EKVX NSCLC
[30] = test system: MCF7 breast
[31] = test system: A549 NSCLC
[32] = test system: NCI-H460 lung
[33] = test system: 786-0 renal
[34] = test system: MDA-MB-468 breast
[35] = test system: M14 melanoma
[36] = test system: KM12 colon
[37] = test system: CCRF-CEM leukemia
[38] = test system: K-562 leukemia
[39] = test system: SF-539 CNS
[40] = test system: CAKI-1 renal
[41] = test system: HT29 colon
[42] = test system: T-47D breast
[43] = test system: OVCAR-5 ovarian
[44] = test system: HOP-92 NSCLC
[45] = test system: PC-3 prostate
[46] = test system: LOX IMVI melanoma
[47] = test system: SF-295 CNS
[48] = test system: SK-MEL-5 melanoma
[49] = test system: UACC-257 melanoma
[50] = test system: HS 578T breast
[51] = test system: HCT-116 colon
[52] = test system: SR leukemia
[53] = test system: SK-OV-3 ovarian
[54] = test system: HCC-2998 colon
[55] = test system: DU-145 prostate
[56] = test system: SN12C renal
[57] = test system: A498 renal
[58] = test system: NCI-H522 lung

In the case of C=C1CC[C@@H]2[C@]3(C)COC(c4cn[nH]c4-c4ccccc4)O[C@@H]3CC[C@@]2(C)[C@@H]1C/C=C1/C(=O)OCC1O (stereo partly specified), the GI50 [1] is reported as 13.5 µM, the TGI [1] is reported as 29.8 µM and the GI50 [2] is reported as 15 µM. For the same compound, the TGI [2] was 28.5 µM, the GI50 [3] was 8.39 µM and the TGI [3] was 93.8 µM. For the same compound, the GI50 [4] was 14.3 µM, the TGI [4] was 28.6 µM and the GI50 [5] was 15 µM. It also gave a TGI [5] of 28.2 µM, a GI50 [6] of 15.8 µM and a TGI [6] of 32.8 µM. It also gave a GI50 [7] of 13.5 µM, a TGI [7] of 28.7 µM and a GI50 [8] of 17 µM. The TGI [8] was 42.8 µM, the GI50 [9] was 10.4 µM and the TGI [9] was 35.1 µM. The GI50 [10] was 15.2 µM, the TGI [10] was 52 µM and the GI50 [11] was 16.1 µM. The TGI [11] was 37.8 µM, the GI50 [12] was 11.1 µM and the TGI [12] was 37.5 µM. It also gave a GI50 [13] of 13.3 µM, a TGI [13] of 67.5 µM and a GI50 [14] of 18 µM. The TGI [14] was 49.6 µM, the GI50 [15] was 15.2 µM and the TGI [15] was 43.3 µM. The GI50 [16] was 14.4 µM, the TGI [16] was 33.3 µM and the GI50 [17] was 18.5 µM. For the same compound, the TGI [17] was 75.4 µM, the GI50 [18] was 13.2 µM and the TGI [18] was 27.2 µM. For the same compound, the GI50 [19] was 13.6 µM, the TGI [19] was 26.5 µM and the GI50 [20] was 16.1 µM. For the same compound, the TGI [20] was 35.6 µM, the GI50 [21] was 20.2 µM and the TGI [21] was 51.7 µM. It also gave a GI50 [22] of 17.6 µM, a TGI [22] of 69.1 µM and a GI50 [23] of 13.2 µM. For the same compound, the TGI [23] was 30.5 µM, the GI50 [24] was 13.7 µM and the TGI [24] was 26.8 µM. The GI50 [25] was 14.8 µM, the TGI [25] was 28.7 µM and the GI50 [26] was 8.5 µM. For the same compound, the TGI [26] was 21.7 µM, the GI50 [27] was 3.83 µM and the TGI [27] was 54.5 µM. The GI50 [28] was 11.5 µM, the TGI [28] was 28 µM and the GI50 [29] was 14.5 µM. The TGI [29] was 32.7 µM, the GI50 [30] was 10.5 µM and the TGI [30] was 34.9 µM. For the same compound, the GI50 [31] was 17.3 µM, the TGI [31] was 51.8 µM and the GI50 [32] was 15.3 µM. It also gave a TGI [32] of 32.3 µM, a GI50 [33] of 18.8 µM and a TGI [33] of 43 µM. The GI50 [34] was 9 µM, the TGI [34] was 32.6 µM and the GI50 [35] was 14.4 µM. For the same compound, the TGI [35] was 28.2 µM, the GI50 [36] was 11.3 µM and the TGI [36] was 54.9 µM. For the same compound, the GI50 [37] was 4.83 µM, the TGI [37] was 42.5 µM and the GI50 [38] was 12.8 µM. The TGI [38] was > 100 µM, the GI50 [39] was 15.6 µM and the TGI [39] was 30.3 µM. The GI50 [40] was 11.6 µM, the TGI [40] was 32.2 µM and the GI50 [41] was 15.4 µM. The TGI [41] was 32.7 µM, the GI50 [42] was 20.2 µM and the TGI [42] was > 100 µM. It also gave a GI50 [43] of 19.2 µM, a TGI [43] of 37.7 µM and a GI50 [44] of 9.14 µM. For the same compound, the TGI [44] was 30.6 µM, the GI50 [45] was 12.2 µM and the TGI [45] was > 100 µM. The GI50 [46] was 10.9 µM, the TGI [46] was 25 µM and the GI50 [47] was 15.4 µM. It also gave a TGI [47] of 30.5 µM, a GI50 [48] of 12.4 µM and a TGI [48] of 24.8 µM. It also gave a GI50 [49] of 15.6 µM, a TGI [49] of 36.1 µM and a GI50 [50] of 9.81 µM. It also gave a TGI [50] of 54.7 µM, a GI50 [51] of 12.2 µM and a TGI [51] of 32.2 µM. For the same compound, the GI50 [52] was 21.2 µM, the TGI [52] was > 100 µM and the GI50 [53] was 22 µM. The TGI [53] was 63.5 µM, the GI50 [54] was 15.8 µM and the TGI [54] was 29.3 µM. For the same compound, the GI50 [55] was 13.8 µM, the TGI [55] was 35.4 µM and the GI50 [56] was 22 µM. For the same compound, the TGI [56] was 70 µM, the GI50 [57] was 30.9 µM and the TGI [57] was > 100 µM. The GI50 [58] was 14.1 µM and the TGI [58] was 29.8 µM.

Source: PubChem BioAssay (NCI)
